Consider 4 compounds from PMC9266449, “Dried Blood Spots as Matrix for Evaluation of Valproate Levels and the Immediate and Delayed Metabolomic Changes Induced by Single Valproate Dose Treatment” (International Journal of Molecular Sciences, 2022).

Structures are written as SMILES. Like-named read-outs stand apart in the source and are kept apart here.

For data set [1] the following is noted: source not stated; cited from earlier work.
Data set [2] in a line: Pharmacokinetics of VPA from DBS drug levels after intravenous bolus in rats. It is filed as in vivo. The note with it: Sprague-Dawley, rat, dried blood spots (whole blood), iv bolus 200 mg/kg, mean ± SD; for AUC(0-t): read-out: Area under the curve (AUC0–8 h); for clearance: read-out: Clearance (CL) (converted); for half-life: read-out: HL Lambda Z (terminal elimination half-life) (converted); for MRT: read-out: Mean residence time (MRT); for Vd: read-out: Volume of distribution (Vd). As for the experimental part: Sprague-Dawley rats (7–8 weeks old, males: 10, females: 10) were obtained from the Comparative Medicine Center (CMC) of NUS. The rats were housed in a specific pathogen free animal facility (24 °C, 60% relative humidity) at CMC and kept on a 12-h light/dark cycle with free access to food and water. Twenty-four hours before the study, a polyethylene tubing (I.D. 0.58 mm, O.D. 0.965 mm, Becton Dickinson, Sparks, MD 21152, USA) was implanted into the right jugular vein under isoflurane anesthesia. This catheter was used for drug injection and blood sampling.
At 9 am on the study day, five rats from each gender were administered VPA intravenously at a dose of 200 mg/kg body weight (treatment group). The rest of the 5 rats from each gender were given sodium chloride 0.9% intravenously, as the placebo control group. Prior to VPA administration, blood samples (approximately 300 µL) from each of the 10 male rats and 10 female rats were collected and kept in an ice box until they were processed. After VPA/saline injection, blood samples were collected at 0.5, 2.5, 5, 8 and 24 h, respectively, from the 20 rats. The 6 time points were anticipated to capture the metabolite fluctuations in a day. Within 30 min of collection, the blood samples were spotted in duplicates of 25 µL onto Guthrie paper (UK Neonatal Screening Laboratories Network, Whatman 903®) and were left to dry in the fume hood for at least 3 h, the minimum time required for complete dryness. After drying, the DBS were punched, and the cores (6 mm) obtained were placed inside the respective Eppendorf tubes. All the acquired DBS were stored at −80 °C until processing for analysis. One DBS was used for metabolomic analysis and the other one was used for drug level quantification.
Extraction of VPA from DBS was carried out using 480 µL of acetonitrile and 20 µL of 1 N NaOH, vortexed for 1 min and followed by sonication for 5 min. The resulting extracts were centrifuged at 3500× g, 22 °C for 15 min [29, 30]. An amount of 400 µL of the supernatant were transferred into 15 mL Kimble centrifuge glass tubes for drying under a stream of nitrogen at 30 °C, followed by the removal of water using toluene and drying under nitrogen again. The dried sample was then derivatized using 50 µL MSTFA with 1% TMCS with incubation at 70 °C for an optimum period of 50 min. […] After vortexing for 1 min, 80 µL of the final volume was transferred into a 200 µL conical base inert glass insert, placed inside a 2 mL amber autosampler glass vial.
An assay for quantification of VPA concentrations in DBS was optimized in accordance to the International Conference of Harmonization (ICH) guideline. The settings were as follows: an injection temperature of 200 °C, ion source temperature of 220 °C, split ratio of 1:5, the starting temperature set at 90 °C for 0.2 min, with initial gradient ramp at 10 °C/min to 120 °C and held for 0.5 min. The temperature was then increased at 65 °C/min up to 285 °C and held for another 0.5 min. The temperature ramp was then reduced to 10 °C/min to reach a temperature of 291 °C and held for 0.2 min, before continuing at 60 °C/min to reach a final temperature of 300 °C, with a hold at 300 °C for 5 min. Selective ion monitoring (SIM) mode was applied for identifier ions with an m/z value of 201 and qualifying ions with m/z values of 145 and 129. A calibration curve was established with 6 concentrations, ranging from 0.5 µg/mL to 5 mg/mL.
Concentration-time profiles of VPA after intravenous bolus injection were fitted into a non-compartmental model (WinNonlin Professional, Version 5.1, Pharsight Corporation, Mountain View, CA, USA). The pharmacokinetic parameters obtained included the area under the DBS concentration versus time curve (AUC0–8 h), apparent volume of distribution (Vd) clearance (Cl), terminal elimination half-life (HL Lambda Z) and mean residence time (MRT) of VPA.

For data set [3] the following is noted: human; cited from earlier work.
The conditions of data set [4]: rats; cited from earlier work.
Details of data set [5]: method as in PMID 3146521. The note with it: female rats, 200 mg/kg oral gavage, cited from earlier work.
On the set-up of data set [6]: method as in PMID 390116. The conditions noted are these: whole blood concentrations, cited from earlier work.
Details of data set [7]: method as in PMID 390116. The conditions noted are these: mean ± standard error; cited from earlier work.
The mark [8] stands for this setting: both sexes, all rats (male and female pooled).

The LogP is a log measure of how a compound divides between an organic and an aqueous phase. As to `C[C@H](N)C(=O)O` [Alanine], the LogP in data set [1] is given as -0.68.

What is called clearance is a measure of how efficiently the substance is removed, as volume per time. Usually half-life stands for how long it takes for the measured level to halve. For orientation: MRT means the average time that molecules of a dose stay in the body. The term Vd denotes the apparent volume that relates the amount in the body to the concentration in plasma or blood. As usually defined, the AUC is the area under the concentration-time curve, a measure of exposure. For the compound `CCCC(CCC)C(=O)O` [VPA, 2-propyl-pentanoic acid], in data set [2] (female rats), the AUC(0-t) came out at 363 ± 18.7 µg·h/mL, the clearance was 2 mL/min, the half-life was 2.01 ± 0.24 h and the MRT turned out to be 1.46 ± 0.4 h. Besides, the Vd in data set [2] (female rats) came out at 0.21 ± 0.01 L. In data set [2] (male rats), the AUC(0-t) was 126 ± 39.2 µg·h/mL, the clearance was 8.5 mL/min, the half-life was 1.71 ± 0.18 h and the MRT came out at 1.14 ± 0.28 h. Moreover, the Vd in data set [2] (male rats) was 0.82 ± 0.23 L. Further, in data set [2] (setting [8]), the AUC(0-t) was found to be 245 ± 133 µg·h/mL, the clearance is 5.33 mL/min, the half-life was 1.86 ± 0.26 h and the MRT was 1.3 ± 0.36 h. Also, the Vd in data set [2] (setting [8]) came out at 0.51 ± 0.36 L. Moreover, the Protein bound in data set [3] was 90%. Also, the Protein bound in data set [4] is reported as 64%. Further, in data set [5] (plasma), the AUC is on record as 1019 ± 769 µg·h/mL and the “Maximum concentration (Cmax) at 0.5 h” value is given as 341 ± 18 µg/mL. For the same compound, in data set [5], the “t1/2 (plasma half-life)” value is recorded as 1.0 ± 0.2 h. Also, the t1/2 in data set [6] (male rats, 150 mg/kg) is listed as 0.68 h. In addition, in data set [6] (rats dosed at 15 mg/kg), the CL was 0.525 ± 0.065 L/h and the Vd is 0.155 ± 0.025 L. The “Plasma/whole blood concentrations ratio” value in data set [7] is 1.46 ± 0.03.

Turning to `CC(C)CCC[C@@H](C)[C@H]1CC[C@H]2[C@@H]3CC=C4C[C@@H](O)CC[C@]4(C)[C@H]3CC[C@]12C` [Cholesterol], the LogP in data set [1] was 7.11.

On to `CCCCCCCCCCCCCCCC(=O)O` [Palmitic acid], for which the lipophilicity (LogP) in data set [1] is recorded as 6.26.
